Assay results taken from PMC8661032, “Broad-Spectrum Antibacterial Peptide Kills Extracellular and Intracellular Bacteria Without Affecting Epithelialization” (Frontiers in Microbiology, 2021).
Values after ≈ are worked out from the molar mass of the structure shown.

Key:
Assay in all cases: microbe, parasite or virus in culture
S. aureus = details: for MIC: CAMHB, 24 h, three independent experiments
Method: (§1) Briefly, bacterial colonies from blood agar plates were suspended and grown in Cation-Adjusted Mueller-Hinton Broth (CAMHB, […] Ca^2+, […] Mg^2+). The bacterial suspension was adjusted to 0.5 McFarland standard (∼1 × 10^8 colony-forming units (CFU)/ml) and serial diluted 1:200 in CAMHB (∼5 × 10^5 CFU/mL). […] The suspension was plated out on blood agar plates to confirm the CFU/ml. Both the microtiter plates and the blood agar plates were incubated at 37°C for 24 h.

E. coli = details: for MIC: Escherichia coli
Method: as §1

K. pneumoniae = details: for MIC: Klebsiella pneumoniae
Method: as §1

[1] = Staphylococcus aureus, ATCC29213, 24 h, Reference strain ATCC 29213
[2] = Staphylococcus aureus, MRSA, Clinical isolate SO-SAU19-1 (MRSA)
[3] = SO-ECO19-1 (ESBL-CARB-A(CTX-M-24)/D(OXA-48))

Structure (SMILES)	Combination effect with 0.5× MIC betatide (S. aureus; ATCC 29213)	Combination effect with 0.5× MIC betatide (S. aureus; SO-SAU19-1 (MRSA))	MIC (S. aureus; [1]) [µg/mL]	MIC (S. aureus; [2]) [µg/mL]	MIC (E. coli; 24 h) [µg/mL]	MIC (E. coli; MG1655, 24 h) [µg/mL]	Combination effect with 0.5× MIC betatide (E. coli; MG1655)	Combination effect with 0.5× MIC betatide (E. coli; [3])	further results
CO[C@@]1(NC(=O)Cc2cccs2)C(=O)N2C(C(=O)O)=C(COC(N)=O)CS[C@@H]21 [Cefoxitin, cefoxitin]	None	Additive 2×	4 (≈ 9.36 µM)	32 (≈ 74.9 µM)					
CO/N=C(\C(=O)N[C@@H]1C(=O)N2C(C(=O)O)=C(CSc3nc(=O)c(=O)[nH]n3C)CS[C@H]12)c1csc(N)n1 [Ceftriaxone, ceftriaxone]					1020 (≈ 1850 µM)	0.06 (≈ 0.108 µM)	None	Additive 4×	
CCC[C@@H]1C[C@@H](C(=O)N[C@@H]([C@H]2O[C@H](SC)[C@H](O)[C@@H](O)[C@H]2O)[C@H](C)Cl)N(C)C1 [Clindamycin, clindamycin]	Additive 2×	Additive 2×	0.25 (≈ 0.588 µM)	2050 (≈ 4820 µM)					
C[C@@H](O)[C@H]1C(=O)N2C(C(=O)O)=C(S[C@@H]3CN[C@H](C(=O)Nc4cccc(C(=O)O)c4)C3)[C@H](C)[C@H]12 [Ertapenem, ertapenem]					64 (≈ 135 µM)	0.06 (≈ 0.126 µM)	None	Additive 2×	Combination effect with 0.5× MIC betatide (K. pneumoniae; ATCC 13883): Additive 4×; MIC (K. pneumoniae; 24 h): 32 µg/mL (≈ 67.3 µM); MIC (K. pneumoniae; ATCC13883, 24 h): 0.03 µg/mL (≈ 0.0631 µM); Combination effect with 0.5× MIC betatide (K. pneumoniae; SO-KPN19-1 (ESBL-CARBA-D)): Additive 2×
CC(=O)O[C@H]1C[C@@]2(C)[C@@H](C[C@@H](O)[C@H]3[C@@]4(C)CC[C@@H](O)[C@@H](C)[C@@H]4CC[C@@]32C)/C1=C(\CCC=C(C)C)C(=O)O [Fusidic acid, fusidic acid]	Additive, 2×	Additive 8×	0.25 (≈ 0.484 µM)	0.25 (≈ 0.484 µM)					Combination effect with 0.5× MIC betatide (S. aureus; SO-SAU 19-2 (FR-MRSA)): Additive 2×; Combination effect with 0.5× MIC betatide (S. aureus; SO-SAU 19-3 (FR-MRSA)): Additive 4×; Combination effect with 0.5× MIC betatide (S. aureus; SO-SAU 19-4 (FR-MRSA)): Additive 2×; MIC (S. aureus; SO-SAU 19-4 (FR-MRSA)): 8 µg/mL (≈ 15.5 µM); MIC (S. aureus; Staphylococcus aureus, MRSA, SO-SAU 19-2 (FR-MRSA)): 8 µg/mL (≈ 15.5 µM); reduction in MIC of fusidic acid when combined with 0.5× MIC betatide (S. aureus; fusidic acid-sensitive MRSA strain): 8 ×
